Measured values reported in ChEMBL document CHEMBL1146831, “Binding of a homologous series of anthraquinones to DNA” (Bioorg Med Chem Lett, 2004).

Tests used:
Nucleic Acid [1] = experiment: Binding constant towards GC-rich calf thymus DNA hairpin; type: nucleic-acid assay; settings: Bos taurus
Nucleic Acid [2] = experiment: Binding constant towards AT-rich calf thymus DNA hairpin; type: nucleic-acid assay; settings: Bos taurus

Row | K (Nucleic Acid [1]) [M⁻¹] | K (Nucleic Acid [2]) [M⁻¹] | SMILES
1 | 110000 | 250000 | COCCOCCOCCCNCCC(=O)Nc1ccc2c(c1)C(=O)c1ccc(NC(=O)CCNCCCOCCOCCOC)cc1C2=O
2 | 310000 | 760000 | COCCCNCCC(=O)Nc1ccc2c(c1)C(=O)c1ccc(NC(=O)CCNCCCOC)cc1C2=O
3 | 90000 | 190000 | COCCOCCOCCOCCCNCCC(=O)Nc1ccc2c(c1)C(=O)c1ccc(NC(=O)CCNCCCOCCOCCOCCOC)cc1C2=O
4 | 220000 | 550000 | COCCOCCCNCCC(=O)Nc1ccc2c(c1)C(=O)c1ccc(NC(=O)CCNCCCOCCOC)cc1C2=O
